Test results: patent US20170049678A1, “COMBINATION OF A HYALURONIC ACID AND OF A SULPHATED POLYSACCHARIDE” (PIERRE FABRE DERMO-COSMETIQUE, priority 2014, published 2017)

Test system: Normal human fibroblasts (NHF)
Test: Fibroblast proliferation by BrdU incorporation
Assay type: cell-based
Conditions: single agent; Ascophyscient 10 and 100 μg/ml, sodium hyaluronate 100 and 1000 μg/ml; 44 hours, DMEM with 3% FCS; FIG. 2
Description: The technique used is that of incorporation of a nucleotide, 5-bromo-2′-deoxyuridine (BrdU), a thymidine analog, in the DNA of S-phase cells, at 37° C. This technique makes it possible to quantify cells of which the advance in the cell cycle is characteristic of a proliferating cell (S-phase or DNA synthesis phase). Normal human fibroblasts (NHF), isolated from surgical waste skin, are usually cultivated in Dulbecco's modified Eagle's medium (DMEM) with 10% fetal calf serum (FCS). In our experimental conditions, dilutions of the products to be tested are prepared in DMEM with 3% FCS. The cells are first deprived of FCS for 24 hours to stop cell multiplication before incubating them in the presence of the molecules to be evaluated for 44 hours at 37° C., in a 5% CO2 atmosphere. BrdU incorporation, proportional to cell proliferation rate, is evaluated by an anti-BrdU antibody system (Roche Applied Science). The corresponding absorbance (OD) is measured at 450 nm. This datum is thus proportional to cell proliferation rate. […] Analysis of the Results: • expressed as OD (proportional to BrdU incorporation and thus to cell proliferation rate) • expressed as percent stimulation: [formula] • expressed as standard error of the mean: SEM=standard deviation (SD)/√n Statistical analyses using unpaired bilateral Student's t-test were carried out on the raw OD values. […]

Substance: sodium hyaluronate
- fibroblast proliferation (BrdU incorporation, OD 450 nm): moderate effect on fibroblast proliferation
